Laboratory results published in US11624685B2, “Method and system for imaging and analysis of a biological specimen” (The Board of Trustees of the Leland Stanford Junior …, priority 2016, dated 2023).

How the values were obtained:
ArcTRAP mice = experiment: ArcTRAP labeling, background recombination; assay type: in vivo, mouse; conditions: novel aqueous formulation of 4TM, reduced dosage
Text: Male ArcTRAP (ArcCreER+/−, Ai14+/−) mice were used for study. 6-7 week old ArcTRAP mice were handled and injected with saline daily for at least 5 days prior to the experiment (including the home cage controls) to minimize the labeling due to handling and injections. The mice were 7-8 weeks old at the time of behavioral labeling. […] The home cage control group remained in their home cage for the whole period. All the chambers were cleaned with 70% ethanol between trials. On experimental day 2, all mice received 5 mg/kg 4TM (IP injection) 3 hours after the behavioral challenge to enable TRAP labeling. All groups, including the home cage controls, received 4-hyroxytamoxifen injections at the same time of the day (2-3 PM). The bedding of all cages were refreshed daily for 48 hours to prevent 4TM retake. All the labeled mice were kept in their home cage for an additional 10 days to allow the full expression of tdTomoto before perfusion.
10 mg of 4TM (Sigma H6278) was first dissolved in 250 μl DMSO. This stock is first diluted in 5 ml of saline containing 2% Tween 80 and then diluted 1:1 again with saline. The final injectable solution contained: 1 mg/ml 4TM, 1% Tween 80 and 2.5% DMSO in saline.

mPFC of Arc-rTag mice = experiment: Activity-dependent ribosome profiling of mPFC (microarray, qPCR); assay type: in vivo, mouse; conditions: IP fraction, two weeks after labeling
Method: Male Arc-rTag mice were trained and labeled with 4TM with the same protocol used in ArcTRAP labeling. After labeling, the mice were returned and kept in their home cage for 14 days to allow full integration of tagged ribosomes.
Immunoaffinity purification of ribosome RNA from mPFC was carried out similarly to a protocol previously described (Sanz et al, Proc Natl Acad Sci USA, 106:13939-13944 (2009)) with minor modifications. For preparation of anti-GFP-conjugated dynabeads, for each sample 50 μl protein G dynabeads (Life Technologies) was first washed with PBST and then incubated with 2 μl anti-GFP antibody (Abcam, ab290) in a total volume of 200 μl PBST. […] RNA samples (all at 100 ng per sample) were processed at the Stanford Protein and Nucleic Acid Biotechnology Facility by one-cycle target preparation, labeling and hybridization to Mouse Gene 2.0 ST Array (Affymetrix), according to the manufacturer's protocol and analyzed by Affymetrix Transcriptiome Analysis Console.
For qPCR analysis, RNA was reverse transcribed using the ABI high capacity cDNA synthesis kit and used in quantitative PCR reactions containing SYBR-green fluorescent dye (ABI). Relative expression of mRNAs was determined after normalization with TBP levels using the ΔΔCt method. […]

Row | Compound | background recombination in ArcTRAP line (ArcTRAP mice) | Npas4 transcript enrichment in cocaine-activated cells compared to shock-activated cells (mPFC of Arc-rTag mice)
1 | 4-hydroxytamoxifen [4TM] | eliminate the background recombination | –
2 | COC(=O)[C@H]1[C@@H](OC(=O)c2ccccc2)C[C@@H]2CC[C@H]1N2C [cocaine] | – | 3 fold
